# Source: patent US20230000852A1, “Treatment of Dermal Cytokine Storm Syndromes” (Bridge Pharma, Inc., priority 2021, published 2023)
# Where a name gives a salt, the structure may show the parent alone.
# Tests used:
# [1] = system: IL31-induced (SC) pruritus; assay: IL-31-induced pruritus in mice; type: in vivo; conditions: for Pruritic Bouts Mean ± SEM: 10 mg/kg oral 60 minutes before murine IL31 1.0 μg/30 gram SC, counted for 120 min, N 8; for Protection: 10 mg/kg oral 60 minutes before murine IL31 SC, vs vehicle
# Description: To determine if NK inhibits IL31-induced pruritus in mice. Studies have now been performed, using murine IL31 as a pruritogen. Mice were dosed orally with a test article exactly 60 minutes before murine IL31 at a dose of 1.0 μg/30 gram body weight was injected subcutaneously into a previously depilated area on the rostral part of the back of mice. IL31 was dissolved in phosphate buffered saline (PBS) with 0.1% bovine serum albumin (BSA). The injected volume was 0.1 ml/mouse. The bouts of scratching were counted for 120 min, starting 30 min after the injection of IL31. The bouts of scratching were counted by trained laboratory personnel who were unaware of the pretreatment of the animals. Oclacitinib (Apoquel®) is a Janus kinase inhibitor that is the worldwide market leader for oral treatment of atopic dermatitis in dogs.
# [2] = system: shaved skin of Gottingen minipigs; assay: Skin irritation study in Göttingen mini pigs; type: in vivo, Göttingen minipigs; conditions: dermal once daily for four consecutive days
# Description: To assess possible skin irritation following repeated dermal application of racemic norketotifen as a hydrogen fumarate salt (NK-HF) to Gottingen Minipigs.
# Standard creamy polyethylene-glycol (PEG400/PEG4000; herein called PEG) formulations containing 0% (vehicle control), 5% or 10% of RS-norketotifen hydrogen fumarate (NK-HF) were prepared and applied once daily for four consecutive days to three marked areas (3 inches×3 inches) of the shaved skin of Gottingen minipigs pigs (2M+2F, 7-8 months; 9.7-11.6 kg). The volumes used for each application were 3.5 mL). Four animals were used in this study. The number of animals was intended to satisfy regulatory guidelines, to meet general scientific principles and to meet Bridge Pharma's animal-sparing commitments. The vehicle and the test articles were applied once daily for four consecutive days, and erythema (redness), edema (swelling) and eschar (scab) were assessed by the Study Director, who personally assessed and scored the appearance of the skin before the daily cream applications and four hours thereafter on Days 1 through 4. Additional inspections and scorings were performed on Day 5, twenty-four hours after the last (Day 4) applications of the vehicle and test articles.
# [3] = Dermal and plasma concentrations of NK after oral dosing to dogs; type: in vivo; conditions: for AUC∞ Plasma / MRT Plasma / T1/2 Plasma / AUC∞ Skin / MRT Skin / T1/2 Skin: oral S-NK 8.0 mg/kg/day for 28 days, dogs (N = 5)
# Description: The purpose was to determine drug concentrations and calculate pharmacokinetics in the skin and plasma of dogs during and following daily oral administration of S-NK-HF (the S-isomer of norketotifen hydrogen fumarate) for four weeks.
# Five male beagle dogs, weighing 11.2-13.9 kg (2-4 years old) were included in the study. All animals were administered p.o. doses of the test article 8.0 mg/kg/day as a hydrogen fumarate salt, equal to 5.6 mg/kg/day of the free base. A single isomer of NK was used, since an objective of this study was also to assess the racemization of the NK isomers. The animals were dosed once daily for four weeks followed by daily observations and tissue sampling for an additional two-week washout period.
# Multiple plasma samples and skin biopsies were taken from each dog on Day 1 and Day 28 of drug administration. The plasma and skin samplings were performed at pre-dose, and at 2, 6, 12, and 24 hours post-dose. Plasma and skin samples were also taken intermittently at predetermined intervals during the 28-days dosing period and up to the last day of the study, which was Day 42. Blood samples were taken from v. cephalica antebrachii. Skin biopsies were taken from the area between the mid ventral to lateral abdominal areas, using a 6 mm skin biopsy punch. Subcutaneous fat deposits were carefully trimmed from the skin samples and the skin samples were then weighed. All plasma and skin samples were analyzed using LC/MS/MS methodology.
# IL-2 = assay: PHA-induced IL-2 release from human leucocytes (buffy coats); type: cell-based; conditions: Leucocyte, 10 uM, 30 min pre-incubation, PHA 5 μg/ml 16 hours
# Description: (§1) The objective of this study was to assess the ability of norketotifen to inhibit cytokine release from stimulated human leucocytes.
# (§2) The study was conducted in two phases. The first phase included optimization of the test methodology and including dose-range finding studies, using buffy coats from 3 human donors, stimulated with phytohemagglutinin (PHA). Following optimization of the test conditions, a final protocol was issued. In the ensuing Main Study, white blood cells (buffy coats) from 5 healthy human donors were stimulated with PHA, 5 μg/ml. The concentrations of the test article and the duration of exposure were optimized to obtain acceptable dose-response ratios. Thus, the inhibitory effects of three concentrations of NK and one concentration of ketotifen were evaluated in the Main Study. The buffy coats containing white blood cells from 5 male human donors were resuspended in assay media and were pre-incubated for 30 min with either vehicle/saline, ketotifen 4.3 μg/ml (10 μM) and norketotifen 0.4 μg/ml, 4.1 μg/ml and 41 μg/ml (1.0; 10 and 100 μM). Following these preincubations, the white blood cells were stimulated for 16 hours with PHA, 5 μg/ml. The cell system supernatants were then harvested and stored frozen pending analyses.
# (§3) The concentration of the test articles had to be high in this ex vivo study since the test kit used a high concentration of the agonist PHA (5 μg/ml) and a long exposure time (16 hrs).
# [4] = system: human leucocytes (buffy coats); assay: Cytokine and chemokine release from stimulated human leucocytes, overall; type: cell-based; conditions: PHA 5 μg/ml, 16 hours
# Description: as §1
# as §2, with “analyses. […]” for “analyses.”
# IL-4 = assay: PHA-induced IL-4 release from human leucocytes (buffy coats); type: cell-based; conditions: Leucocyte, 10 uM, 30 min pre-incubation, PHA 5 μg/ml 16 hours
# Description: as §1, §2, §3
# IL-1β = assay: PHA-induced IL-1β release from human leucocytes (buffy coats); type: cell-based; conditions: Leucocyte, 10 uM, 30 min pre-incubation, PHA 5 μg/ml 16 hours
# Description: as §1, §2, §3
# IL-8 = assay: PHA-induced IL-8 release from human leucocytes (buffy coats); type: cell-based; conditions: Leucocyte, 10 uM, 30 min pre-incubation, PHA 5 μg/ml 16 hours
# Description: as §1, §2, §3
# INF-γ = assay: PHA-induced INF-γ release from human leucocytes (buffy coats); type: cell-based; conditions: Leucocyte, 10 uM, 30 min pre-incubation, PHA 5 μg/ml 16 hours
# Description: as §1, §2, §3
# IL-6 = assay: PHA-induced IL-6 release from human leucocytes (buffy coats); type: cell-based; conditions: Leucocyte, 10 uM, 30 min pre-incubation, PHA 5 μg/ml 16 hours
# Description: as §1, §2, §3
# TNFα = assay: PHA-induced TNFα release from human leucocytes (buffy coats); type: cell-based; conditions: Leucocyte, 10 uM, 30 min pre-incubation, PHA 5 μg/ml 16 hours
# Description: as §1, §2, §3
# IL-13 = assay: PHA-induced IL-13 release from human leucocytes (buffy coats); type: cell-based; conditions: Leucocyte, 10 uM, 30 min pre-incubation, PHA 5 μg/ml 16 hours
# Description: as §1, §2, §3
# IL-10 = assay: PHA-induced IL-10 release from human leucocytes (buffy coats); type: cell-based; conditions: Leucocyte, 10 uM, 30 min pre-incubation, PHA 5 μg/ml 16 hours
# Description: as §1, §2, §3
SMILES,Pruritic Bouts Mean ± SEM [1],Protection [1] [%],AUC∞ Plasma [3],MRT Plasma [3] [h],T1/2 Plasma [3] [h],AUC∞ Skin [3],MRT Skin [3] [h],T1/2 Skin [3] [h],also measured
"CNS(=O)(=O)C[C@H]1CC[C@H](N(C)c2ncnc3[nH]ccc23)CC1 [Oclacitinib maleate, Oclacitinib, reference compound]",116 ± 29,43,–,–,–,–,–,–,–
"O=C(O)C=CC(=O)O.O=C1Cc2ccccc2C(=C2CCNCC2)c2ccsc21 [NK-HF, RS-norketotifen hydrogen fumarate]",93 ± 10,54,–,–,–,–,–,–,"Skin irritation (erythema, edema, eschar) ([2]; 5% in creamy PEG formulation): did not induce any irritation; Skin irritation (erythema, edema, eschar) ([2]; 10% in creamy PEG formulation): did not induce any irritation"
"O=C1Cc2ccccc2C(=C2CCNCC2)c2ccsc21 [S-NK, S-norketotifen]",–,–,1627 ng*hr/mL or g,11.3,10.9,25710 ng*hr/mL or g,159.0,162.7,"Racemization after oral administration of the single isomer ([3]; dogs, oral): RS-norketotifen was rapidly formed"
"O=C(O)/C=C/C(=O)O.O=C1Cc2ccccc2C(=C2CCNCC2)c2ccsc21 [R-NK, R-norketotifen]",–,–,1658 ng*hr/mL or g,14.1,7.7,20376 ng*hr/mL or g,159.1,157.0,–
"CN1CCC(=C2c3ccccc3CC(=O)c3sccc32)CC1 [Ketotifen, ketotifen, reference compound]",–,–,–,–,–,–,–,–,inhibition at 10 µM (IL-2): 0%; Inhibition of release of cytokines and chemokines from human white blood cells (in words) [4]: No statistically significant inhibition; inhibition at 10 µM (IL-4): 0%; inhibition at 10 µM (IL-1β): 0%; inhibition at 10 µM (IL-8): 20%; inhibition at 10 µM (INF-γ): 0%; inhibition at 10 µM (IL-6): 0%; inhibition at 10 µM (TNFα): 0%; inhibition at 10 µM (IL-13): 0%; inhibition at 10 µM (IL-10): 0%
